Among the data in publication PMC11281459 (Viruses, 2024) are EC50 and IC50 values, retold here.

Assay [1] concerns SARS-CoV-2. Nature of the assay: microbe, parasite or virus in culture. Particulars: Severe acute respiratory syndrome coronavirus 2, VeroE6/TMPRSS2, 72 h, read-out: EC50 across SARS-CoV-2 Omicron subvariants (CPE by CellTiter-Glo). It is filed as cell-based.
In assay [2] the test system is SARS-CoV-2. Nature of the assay: microbe, parasite or virus in culture. It is filed as cell-based. To be noted: Severe acute respiratory syndrome coronavirus 2, VeroE6/TMPRSS2, 48 h, read-out: IC50 values across different SARS-CoV-2 Omicron subvariants.

Molecules are shown by their SMILES.

The EC50 is the concentration at which the effect is half-maximal. The IC50 is the concentration at which inhibition is half-maximal. In the case of `CNC(=O)C(=O)[C@H](CCC(C)(F)F)NC(=O)[C@@H]1[C@H]2CCC[C@H]2CN1C(=O)[C@@H](NC(=O)OC)C(C)(C)C` [MK-7845], in the assay with SARS-CoV-2 [1], the 50% effective concentration (EC50) was in the range of 90 to 330 nM. For the same compound, the 50% inhibitory concentration (IC50) with SARS-CoV-2 [2] fell in the range of 80 to 300 nM.
